Measured values: ChEMBL document CHEMBL5346933, “Design and synthesis of novel arylurea derivatives of aryloxy(1-phenylpropyl) alicyclic diamines with antimicrobial activity against multidrug-resistant Gram-positive bacteria” (Eur J Med Chem, 2023)
In brackets after ≈: the same amount, converted by molar mass. Activity calls are given as the source filed them. The rule behind the calls is not given here.

What was measured:
[1] = tested on: Staphylococcus epidermidis; assay: Ratio of MBC to MIC for biofilm producer Staphylococcus epidermidis ATCC 35984; assay type: functional
[2] = tested on: Staphylococcus epidermidis; assay: Bactericidal activity against linezolid-resistant Staphylococcus epidermidis NIL 4399/19 assessed as reduction in colony forming units incubated for 18 hrs in broth followed by culturing on agar plate for 24 hrs; assay type: functional; conditions: time 42 hrs, read-out: MBC99.9
Cell membrane [3] = assay: Induction of cell membrane depolarization in vancomycin-resistant Enterococcus faecium clinical strain assessed as bacterial cells with depolarized membrane potential at MIC incubated for 25 to 30 mins by DiOC2(3) probe based flow cytometry (reference value: 0.8%); assay type: subcellular; conditions: time 25-30 min
[4] = tested on: Staphylococcus epidermidis; assay: Bactericidal activity against methicillin- susceptible Staphylococcus epidermidis ATCC 12228 assessed as reduction in colony forming units incubated for 18 hrs in broth followed by culturing on agar plate for 24 hrs; assay type: functional; conditions: time 42 hrs, read-out: MBC99.9
Streptococcus pneumoniae [5] = assay: Antibacterial activity against macrolides-lincosamides and streptogramins B-resistant Streptococcus pneumoniae O/19/4199 assessed as inhibition of bacterial growth incubated for 18 hrs by broth microdilution method; assay type: functional
Enterococcus faecalis [6] = assay: Bactericidal activity against Enterococcus faecalis ATCC 29212 assessed as reduction in colony forming units incubated for 18 hrs in broth followed by culturing on agar plate for 24 hrs; assay type: functional; conditions: time 42 hrs, read-out: MBC99.9
Enterococcus faecium [7] = assay: Ratio of MBC to MIC for vancomycin-resistant Enterococcus faecium clinical strain; assay type: functional
Cell membrane [8] = assay: Induction of cell membrane depolarization in vancomycin-resistant Enterococcus faecium clinical strain assessed as bacterial cells with depolarized membrane potential at 4 times MIC incubated for 25 to 30 mins by DiOC2(3) probe based flow cytometry (reference value: 0.8%); assay type: subcellular; conditions: time 25-30 min
Staphylococcus aureus [9] = assay: Antibacterial activity against Staphylococcus aureus Newman assessed as inhibition of bacterial growth incubated for 18 hrs by broth microdilution method; assay type: functional
[10] = tested on: Staphylococcus epidermidis; assay: Ratio of MBC to MIC for methicillin-susceptible Staphylococcus epidermidis ATCC 12228; assay type: functional
Staphylococcus aureus [11] = assay: Ratio of MBC to MIC for biofilm producer Staphylococcus aureus RN450; assay type: functional
[12] = tested on: Staphylococcus epidermidis; assay: Antibacterial activity against methicillin-susceptible Staphylococcus epidermidis ATCC 12228 assessed as inhibition of bacterial growth incubated for 18 hrs by broth microdilution method; assay type: functional
Cell membrane [13] = assay: Induction of cell membrane depolarization in Staphylococcus aureus Newman assessed as bacterial cells with depolarized membrane potential at 4 times MIC incubated for 25 to 30 mins by DiOC2(3) probe based flow cytometry (reference value: 1.6%); assay type: subcellular; conditions: time 25-30 min
Escherichia coli = assay: Antibacterial activity against Escherichia coli ATCC 25922 assessed as inhibition of bacterial growth incubated for 18 hrs by broth microdilution method; assay type: functional
Staphylococcus aureus [14] = assay: Antibacterial activity against methicillin-susceptible Staphylococcus aureus ATCC 25923 assessed as inhibition of bacterial growth incubated for 18 hrs by broth microdilution method; assay type: functional
Cell membrane [15] = assay: Induction of cell membrane depolarization in Staphylococcus aureus Newman assessed as bacterial cells with polarized membrane potential at MIC incubated for 25 to 30 mins by DiOC2(3) probe based flow cytometry (reference value: 94.3%); assay type: subcellular; conditions: time 25-30 min
Staphylococcus aureus [16] = assay: Antibacterial activity against methicillin-resistant Staphylococcus aureus clinical strain 19449 assessed as inhibition of bacterial growth incubated for 18 hrs by broth microdilution method; assay type: functional
Staphylococcus aureus [17] = assay: Bactericidal activity against methicillin-resistant Staphylococcus aureus clinical strain 19449 assessed as reduction in colony forming units incubated for 18 hrs in broth followed by culturing on agar plate for 24 hrs; assay type: functional; conditions: time 42 hrs, read-out: MBC99.9
Enterococcus faecalis [18] = assay: Ratio of MBC to MIC for Enterococcus faecalis ATCC 29212; assay type: functional
Cell membrane [19] = assay: Induction of cell membrane depolarization in vancomycin-resistant Enterococcus faecium clinical strain assessed as bacterial cells with polarized membrane potential at 2XMIC incubated for 25 to 30 mins by DiOC2(3) probe based flow cytometry (reference value: 96.8%); assay type: subcellular; conditions: time 25-30 min
Enterococcus faecium [20] = assay: Antibacterial activity against vancomycin-resistant Enterococcus faecium assessed as inhibition of bacterial growth measured for 18 hrs by OD600 based analysis; assay type: functional, organism-based
Cell membrane [21] = assay: Induction of cell membrane depolarization in methicillin-resistant Staphylococcus aureus 19449 assessed as bacterial cells with polarized membrane potential at 2XMIC incubated for 25 to 30 mins by DiOC2(3) probe based flow cytometry (reference value: 98.8%); assay type: subcellular; conditions: time 25-30 min
Pseudomonas aeruginosa = assay: Antibacterial activity against Pseudomonas aeruginosa ATCC 27853 assessed as inhibition of bacterial growth incubated for 18 hrs by broth microdilution method; assay type: functional
Staphylococcus aureus [22] = assay: Antibacterial activity against vancomycin-intermediate Staphylococcus aureus ATCC 700699 assessed as inhibition of bacterial growth measured for 18 hrs by OD600 based analysis; assay type: functional, organism-based
[23] = Induction of hemolysis in horse RBC at 200 uM incubated for 1 hr; assay type: toxicity, cell-based, Equus caballus, Erythrocyte; conditions: horse red blood cells (erythrocytes), read-out: Activity
Staphylococcus aureus [24] = assay: Bactericidal activity against biofilm producer Staphylococcus aureus RN450 assessed as reduction in colony forming units incubated for 18 hrs in broth followed by culturing on agar plate for 24 hrs; assay type: functional; conditions: time 42 hrs, read-out: MBC99.9
[25] = tested on: Staphylococcus epidermidis; assay: Bactericidal activity against biofilm producer Staphylococcus epidermidis ATCC 35984 assessed as reduction in colony forming units incubated for 18 hrs in broth followed by culturing on agar plate for 24 hrs; assay type: functional; conditions: time 42 hrs, read-out: MBC99.9
[26] = Cytotoxicity against human BJ cells assessed as cell viability at 25 ug/ml incubated for 24 hrs by MTT assay; assay type: toxicity, cell-based; conditions: at 25 µg/mL, read-out: Activity
Staphylococcus aureus [27] = assay: Bactericidal activity against vancomycin-intermediate Staphylococcus aureus ATCC 700699 assessed as reduction in colony forming units incubated for 18 hrs in broth followed by culturing on agar plate for 24 hrs; assay type: functional; conditions: time 42 hrs, read-out: MBC99.9
[28] = Cytotoxicity against human MRC5 cells assessed as reduction in cell viability incubated for 24 hrs by MTT assay; assay type: toxicity, cell-based
[29] = tested on: Staphylococcus epidermidis; assay: Ratio of MBC to MIC for linezolid-resistant Staphylococcus epidermidis NIL 4399/19; assay type: functional
Streptococcus pneumoniae [30] = assay: Antibacterial activity against Streptococcus pneumoniae ATCC 49619 assessed as inhibition of bacterial growth incubated for 18 hrs by broth microdilution method; assay type: functional
[31] = tested on: Staphylococcus epidermidis; assay: Antibacterial activity against linezolid-resistant Staphylococcus epidermidis NIL 4399/19 assessed as inhibition of bacterial growth incubated for 18 hrs by broth microdilution method; assay type: functional
Enterococcus faecium [32] = assay: Antibacterial activity against vancomycin-resistant Enterococcus faecium assessed as inhibition of bacterial growth incubated for 18 hrs by broth microdilution method; assay type: functional
Staphylococcus aureus [33] = assay: Ratio of MBC to MIC for methicillin-susceptible Staphylococcus aureus ATCC 25923; assay type: functional
Cell membrane [34] = assay: Induction of cell membrane depolarization in vancomycin-resistant Enterococcus faecium clinical strain assessed as ratio of red to green fluorescence intensity at MIC incubated for 25 to 30 mins by DiOC2(3) probe based flow cytometry; assay type: subcellular; conditions: time 25-30 min
Cell membrane [35] = assay: Induction of cell membrane depolarization in vancomycin-resistant Enterococcus faecium clinical strain assessed as bacterial cells with polarized membrane potential at MIC incubated for 25 to 30 mins by DiOC2(3) probe based flow cytometry (reference value: 96.8%); assay type: subcellular; conditions: time 25-30 min
Cell membrane [36] = assay: Induction of cell membrane depolarization in vancomycin-resistant Enterococcus faecium clinical strain assessed as bacterial cells with polarized membrane potential at 4 times MIC incubated for 25 to 30 mins by DiOC2(3) probe based flow cytometry (reference value: 96.8%); assay type: subcellular; conditions: time 25-30 min

O=C(Nc1cccc(Cl)c1)NC1CCN(CCC(Oc2cccc(C(F)(F)F)c2)c2ccccc2)CC1 (racemic)
Ratio [1]: 4
MBC [2]: 6.25 µg/mL (≈ 11.7 µM)
Activity (Cell membrane [3]): 34.8%
MBC [4]: 3.12 µg/mL (≈ 5.87 µM)
MIC (Streptococcus pneumoniae [5]): 6.25 µg/mL (≈ 11.7 µM)
MBC (Enterococcus faecalis [6]): 6.25 µg/mL (≈ 11.7 µM)
Ratio (Enterococcus faecium [7]): 4
Activity (Cell membrane [8]): 89.3%
MIC (Staphylococcus aureus [9]): 1.56 µg/mL (≈ 2.93 µM)
Ratio [10]: 1
Ratio (Staphylococcus aureus [11]): 4
MIC [12]: 3.12 µg/mL (≈ 5.87 µM)
Activity (Cell membrane [13]): 89.8%
MIC (Escherichia coli): > 12.5 µg/mL
MIC (Staphylococcus aureus [14]): 3.12 µg/mL (≈ 5.87 µM)
Activity (Cell membrane [15]): 0.6%
MIC (Staphylococcus aureus [16]): 0.78 µg/mL (≈ 1.47 µM)
MBC (Staphylococcus aureus [17]): 3.12 µg/mL (≈ 5.87 µM)
Ratio (Enterococcus faecalis [18]): 4
Activity (Cell membrane [19]): 0.3%
Activity (Enterococcus faecium [20]): Active
Activity (Cell membrane [21]): 0.1%
MIC (Pseudomonas aeruginosa): > 12.5 µg/mL
Activity (Staphylococcus aureus [22]): Active
hemolysis at 1 h, 200 µM [23]: < 1%
MBC (Staphylococcus aureus [24]): 6.25 µg/mL (≈ 11.7 µM)
MBC [25]: 6.25 µg/mL (≈ 11.7 µM)
viability at 24 h, 25 ug/ml [26]: 97%
MBC (Staphylococcus aureus [27]): 12.5 µg/mL (≈ 23.5 µM)
IC50 at 24 h [28]: 12.5 µg/mL (≈ 23.5 µM)
Ratio [29]: 2
MIC (Streptococcus pneumoniae [30]): 6.25 µg/mL (≈ 11.7 µM)
MIC [31]: 3.12 µg/mL (≈ 5.87 µM)
MIC (Enterococcus faecium [32]): 1.56 µg/mL (≈ 2.93 µM)
Ratio (Staphylococcus aureus [33]): 4
Ratio (Cell membrane [34]): 0.2
Activity (Cell membrane [35]): 59.3%
Activity (Cell membrane [36]): 1.5%
